Reference: paper PMC9005681, “Use of AD Informer Set compounds to explore validity of novel targets in Alzheimer's disease pathology” (Alzheimer's & Dementia : Translational Research & Clinical …, 2022)
“And” between values parts separate entries of the source, which are not always exact repeats. Identical values can stand only once.

Tests used:
Test in all cases: PDSP GPCR panel primary binding assays at 10 μM
[1] = target: T1, cloned human or rodent CNS receptors, channels, and transporters (PDSP panel) (Homo sapiens, UniProt P35367); conditions: H1, primary assay; for Mean %: mean inhibition; for Inhibition 1: replicate 1; for Inhibition 2: replicate 2; for Inhibition 3: replicate 3; for Inhibition 4: replicate 4
T1 construct: expressed in transfected cells
How it was run: (§1)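 PDSP panel of 46–47 cloned human or rodent CNS receptors, channels and transporters; radioligand displacement by compound at 10 μM, in quadruplicate. Where average displacement exceeded 50%, secondary binding followed as 11-point dose-response in triplicate (none for H3, PBR or GABAA).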

[2] = target: T2, cloned human or rodent CNS receptors, channels, and transporters (PDSP panel) (Homo sapiens, UniProt P47898); conditions: 5-HT5A, primary assay; for Mean %: mean inhibition; for Inhibition 1: replicate 1; for Inhibition 2: replicate 2; for Inhibition 3: replicate 3; for Inhibition 4: replicate 4
T2 construct: expressed in transfected cells
How it was run: as §1

[3] = target: T3, cloned human or rodent CNS receptors, channels, and transporters (PDSP panel) (Homo sapiens, UniProt P41145); conditions: KOR, primary assay; for Mean %: mean inhibition; for Inhibition 1: replicate 1; for Inhibition 2: replicate 2; for Inhibition 3: replicate 3; for Inhibition 4: replicate 4
T3 construct: expressed in transfected cells
How it was run: as §1

[4] = target: T4, cloned human or rodent CNS receptors, channels, and transporters (PDSP panel) (Homo sapiens, UniProt P28566); conditions: 5-HT1E, primary assay; for Mean %: mean inhibition; for Inhibition 1: replicate 1; for Inhibition 2: replicate 2; for Inhibition 3: replicate 3; for Inhibition 4: replicate 4
T4 construct: expressed in transfected cells
How it was run: as §1

[5] = target: T5, cloned human or rodent CNS receptors, channels, and transporters (PDSP panel) (Homo sapiens, UniProt P25021); conditions: H2, primary assay; for Mean %: mean inhibition; for Inhibition 1: replicate 1; for Inhibition 2: replicate 2; for Inhibition 3: replicate 3; for Inhibition 4: replicate 4
T5 construct: expressed in transfected cells
How it was run: as §1

[6] = target: T6, cloned human or rodent CNS receptors, channels, and transporters (PDSP panel) (Homo sapiens, UniProt P11229); conditions: M1, primary assay; for Mean %: mean inhibition; for Inhibition 1: replicate 1; for Inhibition 2: replicate 2; for Inhibition 3: replicate 3; for Inhibition 4: replicate 4
T6 construct: expressed in transfected cells
T6 sequence (P11229 1-460): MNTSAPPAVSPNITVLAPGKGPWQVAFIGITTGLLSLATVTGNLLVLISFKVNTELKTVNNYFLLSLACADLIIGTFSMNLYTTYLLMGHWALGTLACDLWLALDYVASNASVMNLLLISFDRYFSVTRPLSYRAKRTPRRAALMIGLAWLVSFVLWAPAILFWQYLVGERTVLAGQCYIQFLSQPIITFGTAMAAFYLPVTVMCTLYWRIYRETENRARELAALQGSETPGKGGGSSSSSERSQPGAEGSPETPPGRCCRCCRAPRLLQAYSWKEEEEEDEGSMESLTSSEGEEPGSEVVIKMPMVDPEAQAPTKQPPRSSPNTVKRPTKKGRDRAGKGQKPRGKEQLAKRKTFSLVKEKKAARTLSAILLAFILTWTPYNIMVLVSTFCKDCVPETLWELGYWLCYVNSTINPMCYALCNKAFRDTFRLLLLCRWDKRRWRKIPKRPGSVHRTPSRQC
How it was run: as §1

[7] = target: T7, cloned human or rodent CNS receptors, channels, and transporters (PDSP panel) (Homo sapiens, UniProt P34969); conditions: 5-HT7A, primary assay; for Mean %: mean inhibition; for Inhibition 1: replicate 1; for Inhibition 2: replicate 2; for Inhibition 3: replicate 3; for Inhibition 4: replicate 4
T7 construct: expressed in transfected cells
How it was run: as §1

[8] = target: T8, cloned human or rodent CNS receptors, channels, and transporters (PDSP panel) (Homo sapiens, UniProt P35372); conditions: MOR, primary assay; for Mean %: mean inhibition; for Inhibition 1: replicate 1; for Inhibition 2: replicate 2; for Inhibition 3: replicate 3; for Inhibition 4: replicate 4
T8 construct: expressed in transfected cells
How it was run: as §1

[9] = target: T9, cloned human or rodent CNS receptors, channels, and transporters (PDSP panel) (Homo sapiens, UniProt P28223); conditions: 5-HT2A, primary assay; for Mean %: mean inhibition; for Inhibition 1: replicate 1; for Inhibition 2: replicate 2; for Inhibition 3: replicate 3; for Inhibition 4: replicate 4
T9 construct: expressed in transfected cells
How it was run: as §1

[10] = target: T10, cloned human or rodent CNS receptors, channels, and transporters (PDSP panel) (Homo sapiens, UniProt P21917); conditions: D4, primary assay; for Mean %: mean inhibition; for Inhibition 1: replicate 1; for Inhibition 2: replicate 2; for Inhibition 3: replicate 3; for Inhibition 4: replicate 4
T10 construct: expressed in transfected cells
T10 sequence (P21917 1-419): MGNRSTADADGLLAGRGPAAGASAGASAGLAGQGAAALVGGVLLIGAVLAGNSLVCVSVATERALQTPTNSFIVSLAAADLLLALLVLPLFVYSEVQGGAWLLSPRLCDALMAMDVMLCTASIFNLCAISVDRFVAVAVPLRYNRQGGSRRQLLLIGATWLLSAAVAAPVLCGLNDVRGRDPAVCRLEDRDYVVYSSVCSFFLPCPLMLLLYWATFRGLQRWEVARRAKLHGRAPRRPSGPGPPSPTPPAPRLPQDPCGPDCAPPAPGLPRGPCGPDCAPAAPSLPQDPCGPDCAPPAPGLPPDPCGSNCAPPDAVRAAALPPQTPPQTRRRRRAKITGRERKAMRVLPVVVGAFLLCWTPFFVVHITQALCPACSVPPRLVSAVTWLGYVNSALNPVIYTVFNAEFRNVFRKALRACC
How it was run: as §1

T2 sequence (P47898 whole entry): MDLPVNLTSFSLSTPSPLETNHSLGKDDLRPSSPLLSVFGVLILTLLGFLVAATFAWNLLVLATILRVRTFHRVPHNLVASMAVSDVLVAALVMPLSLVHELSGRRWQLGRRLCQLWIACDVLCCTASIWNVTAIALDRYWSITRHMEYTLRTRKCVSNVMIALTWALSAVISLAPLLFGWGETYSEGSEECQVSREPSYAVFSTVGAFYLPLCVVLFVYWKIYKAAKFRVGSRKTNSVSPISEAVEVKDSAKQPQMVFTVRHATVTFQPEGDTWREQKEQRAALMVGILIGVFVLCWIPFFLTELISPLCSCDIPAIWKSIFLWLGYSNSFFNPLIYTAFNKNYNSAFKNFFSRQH
T3 sequence (P41145 whole entry): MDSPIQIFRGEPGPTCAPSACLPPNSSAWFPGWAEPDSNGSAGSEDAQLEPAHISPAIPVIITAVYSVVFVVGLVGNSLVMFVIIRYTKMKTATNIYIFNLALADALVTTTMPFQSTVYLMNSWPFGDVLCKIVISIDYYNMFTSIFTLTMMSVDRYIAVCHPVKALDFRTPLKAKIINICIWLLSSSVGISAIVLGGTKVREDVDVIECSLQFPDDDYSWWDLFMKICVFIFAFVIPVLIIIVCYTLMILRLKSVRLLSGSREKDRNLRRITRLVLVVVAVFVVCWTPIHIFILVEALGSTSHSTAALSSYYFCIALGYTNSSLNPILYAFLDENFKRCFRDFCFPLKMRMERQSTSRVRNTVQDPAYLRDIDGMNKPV
T8 sequence (P35372 whole entry): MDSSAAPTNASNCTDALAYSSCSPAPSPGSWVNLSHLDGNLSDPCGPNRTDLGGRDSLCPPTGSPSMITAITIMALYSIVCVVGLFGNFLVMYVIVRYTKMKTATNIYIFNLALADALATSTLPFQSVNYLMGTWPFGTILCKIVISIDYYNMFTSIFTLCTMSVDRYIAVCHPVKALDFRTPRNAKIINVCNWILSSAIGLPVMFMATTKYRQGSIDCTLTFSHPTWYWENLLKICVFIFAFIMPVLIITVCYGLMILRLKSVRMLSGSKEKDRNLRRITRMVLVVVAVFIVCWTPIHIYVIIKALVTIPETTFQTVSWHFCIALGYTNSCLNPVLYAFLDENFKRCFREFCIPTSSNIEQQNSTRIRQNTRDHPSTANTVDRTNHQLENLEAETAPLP
T4 sequence (P28566 whole entry): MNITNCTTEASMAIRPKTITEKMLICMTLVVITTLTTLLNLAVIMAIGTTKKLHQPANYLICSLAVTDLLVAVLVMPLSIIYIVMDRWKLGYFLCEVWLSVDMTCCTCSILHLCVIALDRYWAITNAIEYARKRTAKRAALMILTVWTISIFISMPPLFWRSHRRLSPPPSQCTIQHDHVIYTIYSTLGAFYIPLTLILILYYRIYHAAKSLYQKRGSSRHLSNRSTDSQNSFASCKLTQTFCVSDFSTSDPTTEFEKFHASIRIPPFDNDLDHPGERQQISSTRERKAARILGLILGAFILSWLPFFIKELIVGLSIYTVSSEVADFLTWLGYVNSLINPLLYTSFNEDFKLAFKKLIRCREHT
T7 sequence (P34969 whole entry): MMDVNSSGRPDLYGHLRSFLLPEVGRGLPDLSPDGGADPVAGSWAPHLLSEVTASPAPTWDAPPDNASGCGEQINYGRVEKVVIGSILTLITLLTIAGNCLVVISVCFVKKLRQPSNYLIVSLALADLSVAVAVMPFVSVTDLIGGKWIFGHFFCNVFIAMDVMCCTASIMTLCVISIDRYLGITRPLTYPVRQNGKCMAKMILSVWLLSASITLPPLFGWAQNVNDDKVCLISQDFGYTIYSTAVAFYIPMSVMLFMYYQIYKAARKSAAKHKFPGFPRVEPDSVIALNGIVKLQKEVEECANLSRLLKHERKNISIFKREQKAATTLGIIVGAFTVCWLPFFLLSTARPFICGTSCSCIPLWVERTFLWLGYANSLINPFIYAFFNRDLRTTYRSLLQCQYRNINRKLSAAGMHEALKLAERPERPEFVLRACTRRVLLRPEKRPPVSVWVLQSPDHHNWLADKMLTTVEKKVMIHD
T9 sequence (P28223 whole entry): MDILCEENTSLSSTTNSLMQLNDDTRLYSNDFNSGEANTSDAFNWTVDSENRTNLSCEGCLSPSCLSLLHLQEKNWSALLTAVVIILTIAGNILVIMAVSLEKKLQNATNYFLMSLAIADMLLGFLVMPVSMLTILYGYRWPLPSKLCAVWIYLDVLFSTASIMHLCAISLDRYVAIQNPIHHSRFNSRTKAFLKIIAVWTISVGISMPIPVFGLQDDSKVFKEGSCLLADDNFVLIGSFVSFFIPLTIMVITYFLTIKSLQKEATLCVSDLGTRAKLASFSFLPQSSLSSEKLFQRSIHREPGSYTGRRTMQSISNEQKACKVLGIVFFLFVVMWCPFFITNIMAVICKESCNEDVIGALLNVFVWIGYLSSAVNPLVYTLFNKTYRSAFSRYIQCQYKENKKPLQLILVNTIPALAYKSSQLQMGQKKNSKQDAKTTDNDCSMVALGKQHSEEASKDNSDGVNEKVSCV
T1 sequence (P35367 whole entry): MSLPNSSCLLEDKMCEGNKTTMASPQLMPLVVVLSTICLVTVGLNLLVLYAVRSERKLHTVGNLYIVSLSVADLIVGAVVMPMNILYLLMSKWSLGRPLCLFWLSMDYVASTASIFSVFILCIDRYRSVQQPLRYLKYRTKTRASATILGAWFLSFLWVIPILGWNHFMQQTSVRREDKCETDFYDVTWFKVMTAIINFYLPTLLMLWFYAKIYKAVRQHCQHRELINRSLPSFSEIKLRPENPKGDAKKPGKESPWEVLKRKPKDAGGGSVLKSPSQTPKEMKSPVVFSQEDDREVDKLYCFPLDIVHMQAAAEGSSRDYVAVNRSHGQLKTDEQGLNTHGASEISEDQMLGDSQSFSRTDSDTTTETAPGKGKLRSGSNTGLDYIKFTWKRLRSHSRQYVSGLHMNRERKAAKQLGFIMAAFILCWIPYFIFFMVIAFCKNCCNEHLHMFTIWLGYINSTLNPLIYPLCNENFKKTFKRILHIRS
T5 sequence (P25021 whole entry): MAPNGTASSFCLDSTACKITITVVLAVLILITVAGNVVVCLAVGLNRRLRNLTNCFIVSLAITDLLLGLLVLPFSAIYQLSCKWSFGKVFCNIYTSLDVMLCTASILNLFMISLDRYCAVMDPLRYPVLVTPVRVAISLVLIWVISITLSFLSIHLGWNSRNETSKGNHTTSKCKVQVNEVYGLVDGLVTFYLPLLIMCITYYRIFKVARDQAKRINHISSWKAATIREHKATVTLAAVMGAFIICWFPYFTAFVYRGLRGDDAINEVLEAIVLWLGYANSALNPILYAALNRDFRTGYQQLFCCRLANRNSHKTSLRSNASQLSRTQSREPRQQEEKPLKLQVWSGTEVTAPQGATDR

Compound: O=C(NC1CC1)C(=O)C(Cc1ccccc1)NC(=O)[C@H]1CCC(=O)N1Cc1ccccc1 (stereo partly shown) [UNC10302676A, ABT-957 (Alicapistat)]
- Mean % [1]: 47.25%
- Inhibition 1 [1]: 60.11%
- Inhibition 2 [1]: 50.46%
- Inhibition 3 [1]: 44.57%
- Inhibition 4 [1]: 33.86%
- Mean % [2]: -3.42%
- Inhibition 1 [2]: 4.48%
- Inhibition 2 [2]: -8.24%
- Inhibition 3 [2]: -6.55%
- Inhibition 4 [2]: -3.37%
- Mean % [3]: -23.29%
- Inhibition 1 [3]: -17.69%
- Inhibition 2 [3]: -22.73%
- Inhibition 3 [3]: -22.5%
- Inhibition 4 [3]: -30.23%
- Mean % [4]: -4.73%
- Inhibition 1 [4]: 3.28%
- Inhibition 2 [4]: -0.45%
- Inhibition 3 [4]: -9.69%
- Inhibition 4 [4]: -12.07%
- Mean % [5]: 2.47%
- Inhibition 1 [5]: -6.09%
- Inhibition 2 [5]: 2.81%
- Inhibition 3 [5]: -1.92%
- Inhibition 4 [5]: 15.07%
- Mean % [6]: -5.83%
- Inhibition 1 [6]: 12.89%
- Inhibition 2 [6]: -15.33%
- Inhibition 3 [6]: -17.78%
- Inhibition 4 [6]: -3.1%
- Mean % [7]: 15.15%
- Inhibition 1 [7]: 8.6%
- Inhibition 2 [7]: 21.46%
- Inhibition 3 [7]: 9.06%
- Inhibition 4 [7]: 21.46%
- Mean % [8]: 7.04%
- Inhibition 1 [8]: 10.32%
- Inhibition 2 [8]: 13.58%
- Inhibition 3 [8]: -4.06%
- Inhibition 4 [8]: 8.3%
- Mean % [9]: 1.79%
- Inhibition 1 [9]: 6.22%
- Inhibition 2 [9]: 7.05%
- Inhibition 3 [9]: 5.57%
- Inhibition 4 [9]: -11.7%
- Mean % [10]: 0.58%
- Inhibition 1 [10]: 5.07%
- Inhibition 2 [10]: -11.66%
- Inhibition 3 [10]: 8.7%
- Inhibition 4 [10]: 0.19%

Compound: CNc1nc(C)nc(N[C@H]2CCC[C@@H](C(=O)NCc3ccc(C#N)cc3C(F)(F)F)C2)n1 [UNC10302679A, GSK2256294A]
- Mean % [1]: 71.69%
- Inhibition 1 [1]: 93.05%
- Inhibition 2 [1]: 75.46%
- Inhibition 3 [1]: 68.14%
- Inhibition 4 [1]: 50.11%
- Mean % [2]: 0.62% and -5.72%
- Inhibition 1 [2]: 13.64% and 5.79%
- Inhibition 2 [2]: -10.06% and -11.12%
- Inhibition 3 [2]: -4.07% and -16.75%
- Inhibition 4 [2]: 2.96% and -0.78%
- Mean % [3]: -10.86%
- Inhibition 1 [3]: -18.36%
- Inhibition 2 [3]: -17.69%
- Inhibition 3 [3]: 0.34%
- Inhibition 4 [3]: -7.72%
- Mean % [4]: 1.71%
- Inhibition 1 [4]: 1.79%
- Inhibition 2 [4]: 6.56%
- Inhibition 3 [4]: 8.79%
- Inhibition 4 [4]: -10.29%
- Mean % [5]: -21%
- Inhibition 1 [5]: -8.72%
- Inhibition 2 [5]: -33.49%
- Inhibition 3 [5]: -19.51%
- Inhibition 4 [5]: -22.27%
- Mean % [6]: -5.74%
- Inhibition 1 [6]: 6.11%
- Inhibition 2 [6]: -4.99%
- Inhibition 3 [6]: -11.01%
- Inhibition 4 [6]: -13.08%
- Mean % [7]: 35.21%
- Inhibition 1 [7]: 10.61%
- Inhibition 2 [7]: 51.06%
- Inhibition 3 [7]: 19.91%
- Inhibition 4 [7]: 59.27%
- Mean % [8]: -0.18%
- Inhibition 1 [8]: -0.8%
- Inhibition 2 [8]: 0.06%
- Inhibition 3 [8]: 1.4%
- Inhibition 4 [8]: -1.38%
- Mean % [9]: -5.29%
- Inhibition 1 [9]: 5.24%
- Inhibition 2 [9]: -8.74%
- Inhibition 3 [9]: -13.01%
- Inhibition 4 [9]: -4.63%
- Mean % [10]: 2.7%
- Inhibition 1 [10]: 2.1%
- Inhibition 2 [10]: -2.96%
- Inhibition 3 [10]: 3.54%
- Inhibition 4 [10]: 8.13%
